Test results as given in ChEMBL document CHEMBL2074205, “Inhibitory potencies of 1,4-dihydropyridine calcium antagonists to P-glycoprotein-mediated transport: comparison with the effects on CYP3A4” (Pharm Res, 2000).

Assays:
Type in all cases: functional, cell-based
[1] = target: T1, ATP-dependent translocase ABCB1 (Homo sapiens, UniProt P08183); experiment: TP_TRANSPORTER: inhibition of Daunorubicin transepithelial transport (basal to apical) (Daunorubicin: 0.035 uM) in MDR1-expressing LLC-PK1 cells
T1 sequence (P08183 whole entry): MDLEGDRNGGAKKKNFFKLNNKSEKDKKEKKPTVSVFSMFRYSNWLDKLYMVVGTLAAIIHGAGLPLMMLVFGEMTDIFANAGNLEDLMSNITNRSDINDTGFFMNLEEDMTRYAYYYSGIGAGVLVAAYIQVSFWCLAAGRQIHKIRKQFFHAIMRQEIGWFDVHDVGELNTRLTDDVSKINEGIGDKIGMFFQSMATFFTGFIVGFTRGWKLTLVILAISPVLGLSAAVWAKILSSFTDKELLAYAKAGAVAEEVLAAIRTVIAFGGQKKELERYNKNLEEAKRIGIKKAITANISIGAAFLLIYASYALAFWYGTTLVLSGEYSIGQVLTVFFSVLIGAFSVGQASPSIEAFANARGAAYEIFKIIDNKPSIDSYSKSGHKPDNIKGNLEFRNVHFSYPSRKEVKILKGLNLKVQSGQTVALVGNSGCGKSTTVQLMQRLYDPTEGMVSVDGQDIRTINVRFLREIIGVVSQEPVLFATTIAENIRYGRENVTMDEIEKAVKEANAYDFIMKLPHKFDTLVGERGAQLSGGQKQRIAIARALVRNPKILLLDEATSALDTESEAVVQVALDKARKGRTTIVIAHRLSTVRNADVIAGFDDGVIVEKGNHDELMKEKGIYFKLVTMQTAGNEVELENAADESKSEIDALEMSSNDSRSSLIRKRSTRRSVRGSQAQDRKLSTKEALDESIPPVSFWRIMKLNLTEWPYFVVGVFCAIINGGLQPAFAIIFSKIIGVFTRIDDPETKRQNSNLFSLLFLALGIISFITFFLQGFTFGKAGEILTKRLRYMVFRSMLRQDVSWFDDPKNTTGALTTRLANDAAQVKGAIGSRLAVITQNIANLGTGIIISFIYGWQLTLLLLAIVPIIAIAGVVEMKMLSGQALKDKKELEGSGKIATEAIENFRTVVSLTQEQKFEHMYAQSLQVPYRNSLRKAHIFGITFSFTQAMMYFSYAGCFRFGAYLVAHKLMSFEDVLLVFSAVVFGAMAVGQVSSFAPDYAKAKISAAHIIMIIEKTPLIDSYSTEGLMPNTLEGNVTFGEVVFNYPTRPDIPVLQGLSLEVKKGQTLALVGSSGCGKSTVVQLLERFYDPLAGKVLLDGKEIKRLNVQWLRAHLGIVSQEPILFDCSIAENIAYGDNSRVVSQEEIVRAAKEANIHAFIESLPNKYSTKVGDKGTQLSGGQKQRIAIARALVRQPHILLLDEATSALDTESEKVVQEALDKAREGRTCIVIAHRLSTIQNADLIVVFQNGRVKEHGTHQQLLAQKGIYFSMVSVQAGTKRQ

[2] = target: T1, ATP-dependent translocase ABCB1; experiment: TP_TRANSPORTER: inhibition of Daunorubicin transepithelial transport (basal to apical), (+)-efonidipine (Daunorubicin: 0.035 uM) in MDR1-expressing LLC-PK1 cells
[3] = target: T1, ATP-dependent translocase ABCB1; experiment: TP_TRANSPORTER: inhibition of Daunorubicin transepithelial transport (basal to apical), (-)-efonidipine (Daunorubicin: 0.035 uM) in MDR1-expressing LLC-PK1 cells

IC50 [1]	IC50 [2]	IC50 [3]	SMILES
4.6 µM	–	–	COC(=O)C1=C(C)NC(C)=C(C(=O)OCCN2CCN(C(c3ccccc3)c3ccccc3)CC2)C1c1cccc([N+](=O)[O-])c1 (stereo unspecified) [MANIDIPINE 6300]
8.6 µM	–	–	COC(=O)C1=C(C)NC(C)=C(C(=O)O[C@H]2CCN(Cc3ccccc3)C2)[C@H]1c1cccc([N+](=O)[O-])c1 [BARNIDIPINE]
–	20.6 µM	17.3 µM	CC1=C(C(=O)OCCN(Cc2ccccc2)c2ccccc2)C(c2cccc([N+](=O)[O-])c2)C(P2(=O)OCC(C)(C)CO2)=C(C)N1 (stereo unspecified) [EFONIDIPINE]
9.5 µM	–	–	COC(=O)C1=C(C)NC(C)=C(C(=O)O[C@@H]2CCCN(Cc3ccccc3)C2)C1c1cccc([N+](=O)[O-])c1 (stereo partly specified)

SMILES	IC50 [1]	IC50 [2]	IC50 [3]
CCOC(=O)C1=C(COCCN)NC(C)=C(C(=O)OC)C1c1ccccc1Cl (stereo unspecified) [AMLODIPINE]	22 µM	–	–
